Experimental data published in US9801850B2, “Antibacterial agent” (OSAKA UNIVERSITY, priority 2009, dated 2017).

Columns and labels:
MSSA ATCC29213 = assay: MIC, broth microdilution (Example 2, Table 6); type: cell-based, Staphylococcus aureus
[1] = tested on: MRSA clinical isolate No. 10; assay: MIC, broth microdilution (Example 2, Table 6); type: cell-based, Staphylococcus aureus
[2] = tested on: MSSA clinical isolate No. 2; assay: MIC, broth microdilution (Example 2, Table 6); type: cell-based, Staphylococcus aureus
[3] = tested on: MSSA clinical isolate No. 1; assay: MIC, broth microdilution (Example 2, Table 6); type: cell-based, Staphylococcus aureus
[4] = tested on: MRSA clinical isolate No. 7; assay: MIC, broth microdilution (Example 2, Table 6); type: cell-based, Staphylococcus aureus
[5] = tested on: Streptococcus agalactiae ATCC13813; assay: Antibacterial spectrum MIC (Table 7); type: cell-based; conditions: Strepto Haemo supplement
Protocol: (§1) Methicillin-susceptible Staphylococcus aureus (MSSA) NCTC8325 and methicillin-resistant Staphylococcus aureus (MRSA) ATCC43300 were used as bacteria. The bacteria of each type were cultured using Mueller-Hinton Broth (MH-broth, Difco) as a medium. Then, the minimum inhibitory concentration (MIC) of each of the EGCG derivatives was measured by a broth microdilution method in accordance with the Clinical and Laboratory Standards Institute (CLSI) guidelines (hereinafter the same).
(§2) First, each of the EGCG derivatives was dissolved in 100% dimethyl sulfoxide (DMSO, Wako Pure Chemical Industries, Ltd.) so that the concentration thereof became 5120 μg/ml. The resultant solution was diluted with DMSO or sterile distilled water so as to prepare two-fold dilution series of antibacterial agent solutions. […] Each of these antibacterial agent solutions was dispensed to wells of a 96-well plate. The concentration of the EGCG derivative in the antibacterial agent solution dispensed to the wells was set to be 10 times as high as the final concentration. On the other hand, the bacteria were cultured in the MH-broth at 37° C. overnight, and the thus-obtained pre-culture solution was diluted with a new MH-broth so that the concentration thereof in the MH-broth became 10^−4 (10^4-fold dilution), thus preparing a bacterial culture solution of about 1×10^5 CFU/ml (CFU: Colony Forming Unit, the number of viable cells). The bacterial culture solution was further added to each well, and the mixture was cultured at 37° C. for 18 hours. The ratio (volume ratio) between the antibacterial agent solution and the bacterial culture solution added to each well was set to 1:9 (the antibacterial agent solution:the bacterial culture solution), and the volume of the mixture of them per well was set to 100 μl in total. The final concentration of the EGCG derivative in the mixture was set to 8 μg/ml to 512 μg/ml, and the number of viable cells in the mixture was set to about 1×10^5 CFU/ml. Then, after the completion of the culture, the MIC was determined. Also, the turbidity (OD600 nm) was measured using a plate reader so as to identify minor differences.
(§3) Regarding the respective type strains shown in Tables 7 and 8 below, the MIC measurement was performed using the antibacterial agent solutions of Example 2 in the same manner as described in Section (2) of Example 1, except for the following. The antibacterial agent solutions were prepared by dissolving the EGCG derivatives of Example 2 in 100% DMSO and then diluting the resultant mixtures with sterile distilled water. The respective strains were derived from ATCC or NCTC. As Moraxella catarrhalis and Aspergillus fumigatus, clinical isolates thereof without an acquired resistance mechanism were used. For nutrient-rich bacteria, namely, Streptococcus pneumoniae ATCC49619, Streptococcus pyogenes ATCC19615, Streptococcus agalactiae ATCC13813, Moraxella catarrhalis, and Haemophilis influenzae ATCC49766, Strepto Haemo supplement (Eiken Chemical Co., Ltd.) was added to media for culturing them. The MIC measurement with respect to fungi was carried out by a broth microdilution method using a RPMI1640/MOPS (pH 7.0) medium in accordance with CLSI guidelines. About 2×10^3 cells/ml of fungi were inoculated to the medium. After the culture at 35° C. for 24 to 48 hours, the MIC was determined. Also, regarding the antibacterial agent solution of Comparative Example 2, the MIC was measured in the same manner.

[6] = tested on: Streptococcus pyogenes ATCC19615; assay: Antibacterial spectrum MIC (Table 7); type: cell-based; conditions: Strepto Haemo supplement
Protocol: as §1, §2, §3

[7] = tested on: Enterococcus faecalis ATCC29212; assay: Antibacterial spectrum MIC (Table 7); type: cell-based
Protocol: as §1, §2, §3

[8] = tested on: Streptococcus pneumoniae ATCC49619; assay: Antibacterial spectrum MIC (Table 7); type: cell-based; conditions: Strepto Haemo supplement
Protocol: as §1, §2, §3

[9] = tested on: Haemophilis influenzae ATCC49766; assay: Antibacterial spectrum MIC (Table 7); type: cell-based; conditions: Strepto Haemo supplement
Protocol: as §1, §2, §3

[10] = tested on: Staphylococcus epidermis ATCC14990; assay: Antibacterial spectrum MIC (Table 7); type: cell-based; conditions: for MIC: Staphylococcus epidermis ATCC14990; for antibacterial effect: Staphylococcus epidermids ATCC14990, comparison among EGCG derivatives
Protocol: as §1, §2, §3

Neisseria meningitidis = assay: Antibacterial spectrum MIC (Table 7); type: cell-based
Protocol: as §1, §2, §3

[11] = tested on: Stenotrophomonas maltophilia ATCC13637; assay: Antibacterial spectrum MIC (Table 7); type: cell-based
Protocol: as §1, §2, §3

[12] = tested on: Staphylococcus aureus ATCC43300 (MRSA); assay: Antibacterial spectrum MIC (Table 7); type: cell-based
Protocol: as §1, §2, §3

[13] = tested on: Escherichia coli ATCC25922; assay: Antibacterial spectrum MIC (Table 7); type: cell-based
Protocol: as §1, §2, §3

[14] = tested on: Bacillus cereus ATCC14579; assay: Antibacterial spectrum MIC (Table 7); type: cell-based
Protocol: as §1, §2, §3

[15] = tested on: Staphylococcus aureus NCTC8325; assay: Antibacterial spectrum MIC (Table 7); type: cell-based
Protocol: as §1, §2, §3

[16] = tested on: Yersinia enterocolitica ATCC9610; assay: Antibacterial spectrum MIC (Table 7); type: cell-based
Protocol: as §1, §2, §3

[17] = tested on: Klebsiella oxytoca ATCC8724; assay: Antibacterial spectrum MIC (Table 7); type: cell-based
Protocol: as §1, §2, §3

[18] = tested on: Serratia marcescens ATCC13880; assay: Antibacterial spectrum MIC (Table 7); type: cell-based
Protocol: as §1, §2, §3

[19] = tested on: Bacillus subtilus ATCC6051; assay: Antibacterial spectrum MIC (Table 7); type: cell-based
Protocol: as §1, §2, §3

[20] = tested on: Micrococcus lutus ATCC9341; assay: Antibacterial spectrum MIC (Table 7); type: cell-based
Protocol: as §1, §2, §3

[21] = tested on: Neisseria gonorrhoeae ATCC49226; assay: Antibacterial spectrum MIC (Table 7); type: cell-based
Protocol: as §1, §2, §3

[22] = tested on: Enterobacter aerogenes ATCC13048; assay: Antibacterial spectrum MIC (Table 7); type: cell-based
Protocol: as §1, §2, §3

[23] = tested on: Enterobacter cloacae ATCC13047; assay: Antibacterial spectrum MIC (Table 7); type: cell-based
Protocol: as §1, §2, §3

Moraxella catarrhalis = assay: Antibacterial spectrum MIC (Table 7); type: cell-based; conditions: Moraxella catarrhalis clinical isolate, Strepto Haemo supplement
Protocol: as §1, §2, §3

[24] = tested on: MSSA clinical isolate No. 4; assay: MIC, broth microdilution (Example 2, Table 6); type: cell-based, Staphylococcus aureus

Substance | MIC (MSSA ATCC29213) [µg/mL] | MIC [1] [µg/mL] | MIC [2] [µg/mL] | MIC [3] [µg/mL] | MIC [4] [µg/mL] | MIC [5] [µg/mL] | MIC [6] [µg/mL] | MIC [7] [µg/mL] | MIC [10] [µg/mL] | MIC (Neisseria meningitidis) [µg/mL] | MIC [11] [µg/mL] | MIC [12] [µg/mL] | MIC [13] [µg/mL] | MIC [14] [µg/mL] | MIC [15] [µg/mL] | MIC [16] [µg/mL] | MIC [17] [µg/mL] | MIC [18] [µg/mL] | MIC [19] [µg/mL] | MIC [20] [µg/mL] | further results
EGCG-α-linoleate [EGCG-C18TE] | 16 | 16 | 16 | 16 | 16 | >64 | 64 | 64 | 64 | 16 | 32 | 64 | 64 | 32 | 16 | 32 | 64 | 64 | 32 | 64 | MIC [8]: 16 µg/mL; MIC [9]: 16 µg/mL; MIC [21]: 16 µg/mL; MIC [22]: 32 µg/mL; MIC [23]: 64 µg/mL; MIC (Moraxella catarrhalis): 32 µg/mL; MIC [24]: 16 µg/mL
EGCG-stearate [EGCG-C18] | 32 | 32 | 32 | 32 | 32 | 64 | 64 | 32 | 32 | 16 | 32 | 32 | 64 | 32 | 32 | 32 | 64 | 64 | 32 | 64 | antibacterial effect [10]: strongest antibacterial effect; MIC [21]: 16 µg/mL; MIC [22]: 32 µg/mL; MIC [23]: 64 µg/mL; MIC (Moraxella catarrhalis): 64 µg/mL; MIC [24]: 32 µg/mL
EGCG-palmitate [EGCG-C16] | 16 | 16 | 16 | 16 | 16 | >64 | 64 | 16 | 32 | 16 | 32 | 32 | 64 | 16 | 16 | 32 | 64 | 64 | 16 | 64 | MIC [8]: 16 µg/mL; MIC [9]: 16 µg/mL; antibacterial effect [10]: strongest antibacterial effect; MIC [21]: 16 µg/mL; MIC [22]: 32 µg/mL; MIC [23]: 64 µg/mL; MIC (Moraxella catarrhalis): 64 µg/mL; MIC [24]: 16 µg/mL
EGCG-palmitoleate [EGCG-C16E] | 16 | 16 | 16 | 16 | 16 | >64 | 64 | 64 | 64 | 16 | 32 | 64 | 64 | 16 | 16 | 32 | 64 | 64 | 16 | 64 | MIC [8]: 16 µg/mL; MIC [9]: 16 µg/mL; MIC [21]: 16 µg/mL; MIC [22]: 32 µg/mL; MIC [23]: 64 µg/mL; MIC (Moraxella catarrhalis): 64 µg/mL; MIC [24]: 16 µg/mL
EGCG-oleate [EGCG-C18E] | 32 | 16 | 32 | 32 | 16 | >64 | 64 | >64 | 64 | 16 | 32 | 64 | 64 | 32 | 32 | 32 | 64 | 64 | 32 | 64 | MIC [8]: 16 µg/mL; MIC [9]: 16 µg/mL; MIC [21]: 16 µg/mL; MIC [22]: 32 µg/mL; MIC [23]: 64 µg/mL; MIC (Moraxella catarrhalis): 32 µg/mL; MIC [24]: 32 µg/mL
EGCG-linolate [EGCG-C18DE] | 16 | 16 | 16 | 16 | 16 | >64 | 64 | 64 | 64 | 16 | 32 | 64 | 64 | 16 | 16 | 32 | 64 | 64 | 32 | 64 | MIC [8]: 16 µg/mL; MIC [9]: 16 µg/mL; MIC [21]: 16 µg/mL; MIC [22]: 32 µg/mL; MIC [23]: 64 µg/mL; MIC (Moraxella catarrhalis): 64 µg/mL; MIC [24]: 16 µg/mL
